In patent US8022206B2 (OSI Pharmaceuticals, LLC, priority 2008, dated 2011) one finds IC50 data, which are given here for 27 compounds.

Each structure is given as a SMILES string. A value given as a limit tells only on which side of the number the result lay.

In one assay the target is RON (human) (Homo sapiens, UniProt Q04912). Nature of the assay: RON (human) AlphaScreen kinase assay, Km of ATP. Format: biochemical. The note with it: AlphaScreen, Km of ATP; read-out: RON biochemical IC50. In short, it runs like this:
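Detection used PT66 AlphaScreen beads added in Tris pH 7.5/NaCl/EDTA/BSA buffer, read after 1 h incubation. Vehicle-only DMSO wells served as controls.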

A further assay addresses MET (human) (Homo sapiens, UniProt P08581). Nature of the assay: MET (human) AlphaScreen kinase assay, Km of ATP. Type of assay: biochemical. The following applies: AlphaScreen, Km of ATP; read-out: Met biochemical IC50. In short, it runs like this:
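Human MET at lot-optimised concentration in 50 mM Tris pH 7.4 buffer with 1 mM DTT, compound at 1% DMSO final; enzyme starts the reaction, 60 min at RT.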
Background: Bead proximity is the source of the signal in Alpha formats.

Chain of MET (human) (P08581 25-1390): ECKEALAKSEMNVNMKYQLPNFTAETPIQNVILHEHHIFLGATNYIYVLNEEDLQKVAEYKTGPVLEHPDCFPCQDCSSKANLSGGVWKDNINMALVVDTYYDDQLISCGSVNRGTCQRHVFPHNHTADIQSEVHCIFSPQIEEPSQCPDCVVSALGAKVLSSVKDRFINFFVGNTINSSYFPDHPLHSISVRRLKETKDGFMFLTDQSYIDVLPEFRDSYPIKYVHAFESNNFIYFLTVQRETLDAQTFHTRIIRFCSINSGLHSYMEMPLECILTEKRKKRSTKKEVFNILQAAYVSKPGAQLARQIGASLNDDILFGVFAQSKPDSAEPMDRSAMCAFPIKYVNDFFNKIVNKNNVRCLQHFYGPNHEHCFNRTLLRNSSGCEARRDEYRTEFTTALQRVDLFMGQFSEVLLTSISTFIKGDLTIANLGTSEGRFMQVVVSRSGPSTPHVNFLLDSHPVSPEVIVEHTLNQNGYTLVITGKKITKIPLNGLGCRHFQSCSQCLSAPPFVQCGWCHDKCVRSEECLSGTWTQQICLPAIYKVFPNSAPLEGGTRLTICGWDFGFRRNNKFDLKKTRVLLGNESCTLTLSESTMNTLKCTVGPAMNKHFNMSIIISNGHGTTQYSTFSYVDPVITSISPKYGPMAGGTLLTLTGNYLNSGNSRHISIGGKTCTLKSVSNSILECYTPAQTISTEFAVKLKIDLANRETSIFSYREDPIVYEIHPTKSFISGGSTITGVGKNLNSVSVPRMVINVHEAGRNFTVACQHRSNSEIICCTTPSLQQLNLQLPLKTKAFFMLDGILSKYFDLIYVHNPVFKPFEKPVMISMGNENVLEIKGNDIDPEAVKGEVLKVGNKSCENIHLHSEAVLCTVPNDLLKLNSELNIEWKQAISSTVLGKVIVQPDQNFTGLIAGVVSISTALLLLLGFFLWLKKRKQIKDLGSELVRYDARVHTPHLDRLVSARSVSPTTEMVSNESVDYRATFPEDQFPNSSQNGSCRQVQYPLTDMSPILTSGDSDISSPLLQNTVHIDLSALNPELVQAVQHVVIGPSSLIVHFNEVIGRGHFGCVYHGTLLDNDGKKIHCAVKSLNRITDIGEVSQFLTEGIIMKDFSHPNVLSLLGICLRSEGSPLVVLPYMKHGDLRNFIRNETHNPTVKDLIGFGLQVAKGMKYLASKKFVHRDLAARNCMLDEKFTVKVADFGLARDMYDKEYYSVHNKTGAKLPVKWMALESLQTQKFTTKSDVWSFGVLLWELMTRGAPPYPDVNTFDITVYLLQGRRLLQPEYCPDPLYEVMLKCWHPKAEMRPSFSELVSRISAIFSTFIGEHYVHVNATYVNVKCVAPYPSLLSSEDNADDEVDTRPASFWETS
Chain of RON (human) (Q04912 25-1400): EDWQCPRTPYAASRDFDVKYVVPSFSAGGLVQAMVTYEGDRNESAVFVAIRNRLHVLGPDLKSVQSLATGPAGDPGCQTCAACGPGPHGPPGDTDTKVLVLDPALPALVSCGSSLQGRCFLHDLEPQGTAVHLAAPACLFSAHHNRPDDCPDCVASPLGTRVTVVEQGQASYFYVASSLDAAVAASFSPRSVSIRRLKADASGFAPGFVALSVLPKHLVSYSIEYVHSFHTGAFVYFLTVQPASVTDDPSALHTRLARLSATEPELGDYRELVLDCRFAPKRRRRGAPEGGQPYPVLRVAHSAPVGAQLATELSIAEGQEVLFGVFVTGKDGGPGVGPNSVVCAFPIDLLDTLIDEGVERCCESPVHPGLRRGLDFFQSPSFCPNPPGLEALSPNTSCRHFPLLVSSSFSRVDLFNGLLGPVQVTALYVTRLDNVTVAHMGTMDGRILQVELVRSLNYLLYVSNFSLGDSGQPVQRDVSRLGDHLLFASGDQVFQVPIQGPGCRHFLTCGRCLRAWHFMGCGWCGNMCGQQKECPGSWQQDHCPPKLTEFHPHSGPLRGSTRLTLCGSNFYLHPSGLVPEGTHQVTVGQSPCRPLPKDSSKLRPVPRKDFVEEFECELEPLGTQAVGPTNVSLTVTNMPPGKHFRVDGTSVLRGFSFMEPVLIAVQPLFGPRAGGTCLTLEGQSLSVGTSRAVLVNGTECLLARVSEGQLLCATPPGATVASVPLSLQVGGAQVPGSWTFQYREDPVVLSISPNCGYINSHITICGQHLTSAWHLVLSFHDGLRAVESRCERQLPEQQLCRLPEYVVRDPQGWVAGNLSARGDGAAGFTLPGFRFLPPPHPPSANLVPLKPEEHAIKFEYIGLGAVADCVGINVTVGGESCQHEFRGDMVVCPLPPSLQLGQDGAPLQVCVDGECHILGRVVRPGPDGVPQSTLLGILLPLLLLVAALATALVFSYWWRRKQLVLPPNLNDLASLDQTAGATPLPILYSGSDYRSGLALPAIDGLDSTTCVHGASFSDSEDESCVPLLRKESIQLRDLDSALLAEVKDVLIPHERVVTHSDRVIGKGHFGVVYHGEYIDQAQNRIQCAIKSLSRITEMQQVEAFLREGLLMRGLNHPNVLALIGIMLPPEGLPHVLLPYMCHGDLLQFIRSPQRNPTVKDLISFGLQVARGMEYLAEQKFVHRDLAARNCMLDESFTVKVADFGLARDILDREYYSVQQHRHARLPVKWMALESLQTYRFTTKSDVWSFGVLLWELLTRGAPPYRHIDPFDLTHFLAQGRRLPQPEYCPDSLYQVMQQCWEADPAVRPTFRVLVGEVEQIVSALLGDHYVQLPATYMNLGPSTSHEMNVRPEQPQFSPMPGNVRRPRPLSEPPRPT

For the compound `C[C@@H](Oc1c(N)ncc2c(-c3csc(CN4CCC4)c3)coc12)c1c(Cl)ccc(F)c1Cl` [Example 309, 3-(5-Azetidin-1-ylmethylthiophen-3-yl)-7-[(R)-1-(2,6-dichloro-3-fluorophenyl)ethoxy]furo[3,2-c]pyridin-6-ylamine], the IC50 at RON (human) and on MET (human) was under 0.5 µM each time.

For the compound `C[C@@H](Oc1c(N)ncc2c(C3=CCN(C(=O)C4CCCCN4C)CC3)coc12)c1c(Cl)ccc(F)c1Cl` (stereo partly drawn) [Example 236, (4-{6-Amino-7-[(R)-1-(2,6-dichloro-3-fluorophenyl)ethoxy]-furo[3,2-c]pyridin-3-yl}-3,6-dihydro-2H-pyridin-1-yl)-(1-methylpiperidin-2-yl)methanone], the IC50 on RON (human) and on MET (human) was under 0.5 µM throughout.

`C[C@@H](Oc1c(N)ncc2c(-c3ccc(C(=O)NCCN4CCOCC4)cc3)coc12)c1c(Cl)ccc(F)c1Cl` [Example 100, 4-{6-Amino-7-[(R)-1-(2,6-dichloro-3-fluorophenyl)ethoxy]-furo[3,2-c]pyridin-3-yl}-N-(2-morpholin-4-ylethyl)benzamide]: the IC50 at RON (human) and on MET (human) was 0.5 to 5 µM in each case.

In the case of `CCOC(=O)N1CC=C(c2coc3c(O[C@H](C)c4c(Cl)ccc(F)c4Cl)c(N)ncc23)CC1` [Example 51, 4-{6-Amino-7-[(R)-1-(2,6-dichloro-3-fluorophenyl)-ethoxy]-furo[3,2-c]pyridin-3-yl}-3,6-dihydro-2H-pyridine-1-carboxylic acid ethyl ester], the IC50 on RON (human) and at MET (human) was 0.5 to 5 µM in each case.

Regarding `CC(Oc1c(N)ncc2c(-c3cnn(C4CCNCC4)c3)coc12)c1ccc(Cl)c(F)c1` (stereo not drawn) [Example 381, 7-[1-(4-Chloro-3-fluorophenyl)ethoxy]-3-(1-piperidin-4-yl-1H-pyrazol-4-yl)furo[3,2-c]pyridin-6-ylamine], the half-maximal inhibitory concentration (IC50) at RON (human) and at MET (human) was under 0.5 µM in each case.

Take `CC(Oc1c(N)ncc2c(-c3cnn(C4CCNCC4)c3)coc12)c1cccc(-c2ccc[nH]2)c1` (stereo not drawn) [Example 445]: the IC50 at RON (human) and at MET (human) was 0.5 to 5 µM each time.

Regarding `Cc1c(F)cccc1C(C)Oc1c(N)ncc2c(-c3cnn(C4CCNCC4)c3)coc12` (stereo not drawn) [Example 380, 7-[1-(3-Fluoro-2-methylphenyl)ethoxy]-3-(1-piperidin-4-yl-1H-pyrazol-4-yl)furo[3,2-c]pyridin-6-ylamine], the IC50 (commonly the concentration at which inhibition is half-maximal) is 0.5 to 5 µM on RON (human) and under 0.5 µM on MET (human).

With `C[C@@H](Oc1c(N)ncc2c(-c3ccc(N4CCN(C(N)=O)CC4)nc3)coc12)c1c(Cl)ccc(F)c1Cl` [Example 319, 4-(5-{6-Amino-7-[(R)-1-(2,6-dichloro-3-fluorophenyl)ethoxy]furo[3,2-c]pyridin-3-yl}pyridin-2-yl)piperazine-1-carboxamide], the IC50 on RON (human) and on MET (human) was 0.5 to 5 µM in each case.

Turning to `COc1cccc(C(C)Oc2c(N)ncc3c(-c4cnn(C5CCNCC5)c4)coc23)c1` (stereo not drawn) [Example 345, 7-[1-(3-Methoxyphenyl)-ethoxy]-3-(1-piperidin-4-yl-1H-pyrazol-4-yl)furo[3,2-c]pyridin-6-ylamine], the half-inhibitory concentration (IC50) on RON (human) and at MET (human) was 0.5 to 5 µM each time.

Regarding `CNC(=O)c1cccc(C(C)Oc2c(N)ncc3c(-c4cnn(C5CCNCC5)c4)coc23)c1` (stereo not drawn) [Example 412, 3-{1-[6-Amino-3-(1-piperidin-4-yl-1H-pyrazol-4-yl)furo[3,2-c]pyridin-7-yloxy]ethyl}-N-methylbenzamide], the IC50 at RON (human) and on MET (human) was 0.5 to 5 µM each time.

`C[C@@H](Oc1c(N)ncc2c(-c3csc(CN4CCN(C)CC4)c3)coc12)c1c(Cl)ccc(F)c1Cl` [Example 304, 7-[(R)-1-(2,6-Dichloro-3-fluorophenyl)ethoxy]-3-[5-(4-methyl-piperazin-1-ylmethyl)thiophen-3-yl]-furo[3,2-c]pyridin-6-ylamine]: the IC50 on RON (human) and on MET (human) was under 0.5 µM in each case.

For `CC(Oc1c(N)ncc2c(-c3cnn(C4CCNCC4)c3)coc12)c1c(F)cccc1F` (stereo not drawn) [Example 383, 7-[1-(2,6-Difluorophenyl)ethoxy]-3-(1-piperidin-4-yl-1H-pyrazol-4-yl)furo[3,2-c]pyridin-6-ylamine], the figures for the IC50 at RON (human) and at MET (human) were 0.5 to 5 µM and under 0.5 µM, respectively.

For the compound `C[C@@H](Oc1c(N)ncc2c(-c3ccc(CN4CCCC4)s3)coc12)c1c(Cl)ccc(F)c1Cl` [Example 213, 7-[(R)-1-(2,6-Dichloro-3-fluorophenyl)ethoxy]-3-(5-pyrrolidin-1-ylmethylthiophen-2-yl)-furo[3,2-c]pyridin-6-ylamine], the IC50 at RON (human) and at MET (human) was under 0.5 µM each time.

Turning to `C[C@@H](Oc1c(N)ncc2c(C(=O)N(C)C)coc12)c1c(Cl)ccc(F)c1Cl` [Example 177, 6-Amino-7-[(R)-1-(2,6-dichloro-3-fluorophenyl)ethoxy]furo[3,2-c]pyridine-3-carboxylic acid dimethylamide], the values for the IC50 at RON (human) and on MET (human) were 5 to 20 µM and 0.5 to 5 µM, respectively.

Turning to `C[C@@H]1CN(C(=O)c2ccc(-c3coc4c(O[C@H](C)c5c(Cl)ccc(F)c5Cl)c(N)ncc34)cc2)C[C@H](C)N1` (relative stereo) [Example 294, (4-{6-Amino-7-[(R)-1-(2,6-dichloro-3-fluorophenyl)ethoxy]furo[3,2-c]pyridin-3-yl}phenyl)-((3S*,5R*)-3,5-dimethylpiperazin-1-yl)methanone], the IC50 at RON (human) and at MET (human) was under 0.5 µM in each case.

For the compound `C[C@@H](Oc1c(N)ncc2c(-c3cccc(CN)c3)coc12)c1c(Cl)ccc(F)c1Cl` [Example 90, 3-(3-Aminomethylphenyl)-7-[(R)-1-(2,6-dichloro-3-fluorophenyl)-ethoxy]furo[3,2-c]pyridin-6-ylamine], the IC50 at RON (human) is 0.5 to 5 µM; at MET (human), under 0.5 µM.

`C[C@@H](Oc1c(N)ncc2c(-c3ccc(C(=O)N4CCN(CCO)CC4)cc3)coc12)c1c(Cl)ccc(F)c1Cl` [Example 99, (4-{6-Amino-7-[(R)-1-(2,6-dichloro-3-fluorophenyl)ethoxy]-furo[3,2-c]pyridin-3-yl}phenyl)-[4-(2-hydroxyethyl)piperazin-1-yl]methanone]: the IC50 at RON (human) and at MET (human) was under 0.5 µM throughout.

Consider `CC(Oc1c(N)ncc2c(-c3cnn(C4CCNCC4)c3)coc12)c1cccc(C(F)(F)F)c1` (stereo not drawn) [Example 347, 3-(1-Piperidin-4-yl-1H-pyrazol-4-yl)-7-[1-(3-trifluoromethyl-phenyl)ethoxy]furo[3,2-c]pyridin-6-ylamine], for which the IC50 on RON (human) is 0.5 to 5 µM; at MET (human) it was under 0.5 µM.

With `C[C@@H](Oc1c(N)ncc2c(-c3ccc(C(=O)N4CCCCC4)cc3)coc12)c1c(Cl)ccc(F)c1Cl` [Example 290, (4-{6-Amino-7-[(R)-1-(2,6-dichloro-3-fluorophenyl)ethoxy]furo[3,2-c]pyridin-3-yl}phenyl)piperidin-1-ylmethanone], the IC50 at RON (human) and at MET (human) was 0.5 to 5 µM throughout.

On to `CC(Oc1c(N)ncc2c(-c3cnn(C4CCNCC4)c3)coc12)c1ccc(OC(F)(F)F)cc1` (stereo not drawn) [Example 355, 3-(1-Piperidin-4-yl-1H-pyrazol-4-yl)-7-[1-(4-trifluoromethoxy-phenyl)ethoxy]furo[3,2-c]pyridin-6-ylamine], for which the IC50 on RON (human) and on MET (human) was 0.5 to 5 µM throughout.

As to `C[C@@H](Oc1c(N)ncc2c(-c3ccc(C(=O)NCCCO)cc3)coc12)c1c(Cl)ccc(F)c1Cl` [Example 288, 4-{6-Amino-7-[(R)-1-(2,6-dichloro-3-fluorophenyl)ethoxy]furo[3,2-c]pyridin-3-yl}-N-(3-hydroxypropyl)benzamide], the IC50 at RON (human) and at MET (human) was 0.5 to 5 µM throughout.

On to `C[C@@H](Oc1c(N)ncc2c(C3=CCN(C(=O)Nc4ccccc4Cl)CC3)coc12)c1c(Cl)ccc(F)c1Cl` [Example 152, 4-{6-Amino-7-[(1R)-1-(2,6-dichloro-3-fluorophenyl)ethoxy]furo[3,2-c]pyridin-3-yl}-N-(2-chlorophenyl)-3,6-dihydropyridine-1(2H)-carboxamide], for which the IC50 on RON (human) and on MET (human) was 0.5 to 5 µM in each case.

Consider `C[C@@H](Oc1c(N)ncc2c(-c3cccc(CN(C)C)c3)coc12)c1c(Cl)ccc(F)c1Cl` [Example 96, 7-[(R)-1-(2,6-Dichloro-3-fluorophenyl)ethoxy]-3-(3-dimethyl-aminomethylphenyl)furo[3,2-c]pyridin-6-ylamine], for which the IC50 was 0.5 to 5 µM at RON (human) and under 0.5 µM at MET (human).

Regarding `C[C@@H](Oc1c(N)ncc2c(-c3cc(C(N)=O)cs3)coc12)c1c(Cl)ccc(F)c1Cl` [Example 326, 5-{6-Amino-7-[(R)-1-(2,6-dichloro-3-fluorophenyl)ethoxy]furo[3,2-c]pyridin-3-yl}thiophene-3-carboxamide], the IC50 on RON (human) fell in the range of 5 to 20 µM; on MET (human), 0.5 to 5 µM.

For `CC(Cc1c(Cl)cccc1Br)Oc1c(N)ncc2c(-c3cnn(C4CCNCC4)c3)coc12` (stereo not drawn) [Example 371, 7-[2-(2-Bromo-6-chlorophenyl)-1-methylethoxy]-3-(1-piperidin-4-yl-1H-pyrazol-4-yl)furo[3,2-c]pyridin-6-ylamine], the results for the IC50 on RON (human) and at MET (human) were 0.5 to 5 µM and under 0.5 µM, respectively.

For `C[C@@H](Oc1c(N)ncc2c(-c3ccc(N4CCOCC4)nc3)coc12)c1c(Cl)ccc(F)c1Cl` [Example 107, 7-[(R)-1-(2,6-Dichloro-3-fluorophenyl)ethoxy]-3-(6-morpholin-4-ylpyridin-3-yl)-furo[3,2-c]pyridin-6-ylamine], the IC50 at RON (human) and at MET (human) was 0.5 to 5 µM throughout.

For `C[C@@H](Oc1c(N)ncc2c(C3=CCN(C(=O)[C@H]4CCNC4)CC3)coc12)c1c(Cl)ccc(F)c1Cl` [Example 237, (4-{6-Amino-7-[(R)-1-(2,6-dichloro-3-fluorophenyl)ethoxy]-furo[3,2-c]pyridin-3-yl}-3,6-dihydro-2H-pyridin-1-yl)-(S)-pyrrolidin-3-ylmethanone], the IC50 at RON (human) and at MET (human) was under 0.5 µM each time.
